US9540392B2, “Thienopyrimidines” (BAYER PHARMA AKTIENGESELLSCHAFT, priority 2012, dated 2017)

Target: T1, human full-length MKNK1 (Homo sapiens, UniProt Q9BUB5, T385D)
T1 construct: GST (N); purchased Carna Biosciences 02-145; host or cells: insect cells (baculovirus expression system)
Test: MKNK1 kinase high ATP assay (TR-FRET)
Format: biochemical
Settings: 2 mM ATP, after preincubation with MKNK1; read-out: MKNK1 IC50 (MKNK1 high ATP)
Protocol: MKNK1-inhibitory activity at high ATP of compounds of the present invention after their preincubation with MKNK1 was quantified employing the TR-FRET-based MKNK1 high ATP assay as described in the following paragraphs.
As substrate for the kinase reaction the biotinylated peptide biotin-Ahx-[…] (C-terminus in amide form) was used, which can be purchased e.g. from the company Biosyntan (Berlin-Buch, Germany).
For the assay 50 nL of a 100 fold concentrated solution of the test compound in DMSO was pipetted into a black low volume 384 well microtiter plate (Greiner Bio-One, Frickenhausen, Germany), 2 μL of a solution of MKNK1 in aqueous assay buffer [50 mM HEPES pH 7.5, 5 mM MgCl2, 1.0 mM dithiothreitol, 0.005% (v/v) Nonidet-P40 (Sigma)] was added and the mixture was incubated for 15 min at 22° C. to allow pre-binding of the test compounds to the enzyme before the start of the kinase reaction. Then the kinase reaction was started by the addition of 3 μL of a solution of adenosine-tri-phosphate (ATP, 3.3 mM=>final conc. in the 5 μL assay volume is 2 mM) and substrate (0.1 μM=>final conc. in the 5 μL assay volume is 0.06 μM) in assay buffer and the resulting mixture was incubated for a reaction time of 30 min at 22° C. The concentration of MKNK1 was adjusted depending of the activity of the enzyme lot and was chosen appropriate to have the assay in the linear range, typical concentrations were in the range of 0.003 μg/mL. The reaction was stopped by the addition of 5 μL of a solution of TR-FRET detection reagents (5 nM streptavidine-XL665 [Cisbio Bioassays, Codolet, France] and 1 nM anti-ribosomal protein S6 (pSer236)-antibody from Invitrogen [#44921G] and 1 nM LANCE EU-W1024 Labeled ProteinG [Perkin-Elmer, product no. AD0071]) in an aqueous EDTA-solution (100 mM EDTA, 0.1% (w/v) bovine serum albumin in 50 mM HEPES pH 7.5).
The resulting mixture was incubated for 1 h at 22° C. to allow the formation of complex between the phosphorylated biotinylated peptide and the detection reagents. Subsequently the amount of phosphorylated substrate was evaluated by measurement of the resonance energy transfer from the Eu-chelate to the streptavidine-XL. Therefore, the fluorescence emissions at 620 nm and 665 nm after excitation at 350 nm were measured in a TR-FRET reader, e.g. a Rubystar (BMG Labtechnologies, Offenburg, Germany) or a Viewlux (Perkin-Elmer). The ratio of the emissions at 665 nm and at 622 nm was taken as the measure for the amount of phosphorylated substrate.

T1 sequence (Q9BUB5 1-424 isoform Q9BUB5-2 T344D): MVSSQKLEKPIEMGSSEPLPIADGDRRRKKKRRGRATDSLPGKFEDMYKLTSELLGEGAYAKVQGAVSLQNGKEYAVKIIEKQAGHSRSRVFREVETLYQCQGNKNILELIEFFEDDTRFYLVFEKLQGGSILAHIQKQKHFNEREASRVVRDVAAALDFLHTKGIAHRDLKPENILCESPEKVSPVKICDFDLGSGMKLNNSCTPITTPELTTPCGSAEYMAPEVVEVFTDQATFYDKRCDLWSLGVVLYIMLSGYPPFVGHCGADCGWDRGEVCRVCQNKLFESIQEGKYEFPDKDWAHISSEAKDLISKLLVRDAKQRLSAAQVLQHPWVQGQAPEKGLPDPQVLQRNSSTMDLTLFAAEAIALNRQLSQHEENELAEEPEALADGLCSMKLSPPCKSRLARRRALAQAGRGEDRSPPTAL

SMILES	IC50
Cn1ccc(NC(=O)C2CCc3c(sc4ncnc(Nc5ccc6[nH]ncc6c5)c34)C2)n1 (racemic) [Example 140, (RS)-4-(1H-indazol-5-ylamino)-N-(1-methyl-1H-pyrazol-3-yl)-5,6,7,8-tetrahydro[1]benzothieno[2,3-d]pyrimidine-7-carboxamide]	12.4 nM
O=C(NCc1ccc(C(F)(F)F)cc1)C1CCc2c(sc3ncnc(Nc4ccc5[nH]ncc5c4)c23)C1 (stereo not shown) [Example 28, 4-(1H-Indazol-5-ylamino)-N-[4-(trifluoromethyl)benzyl]-5,6,7,8-tetrahydro[1] benzothieno [2,3-d]pyrimidine-7-carboxamide]	4 nM
CN(C)C(=O)C1CCc2c(sc3ncnc(Nc4cc5cn[nH]c5cc4OC(F)(F)F)c23)C1 (racemic) [Example 249, (RS)—N,N-Dimethyl-4-{[6-(trifluoromethoxy)-1H-indazol-5-yl]amino}-5,6,7,8-tetrahydro[1]benzothieno[2,3-d]pyrimidine-7-carboxamide]	15 nM
COc1cccc(NC(=O)C2CCc3c(sc4ncnc(Nc5ccc6[nH]ncc6c5)c34)C2)c1 (stereo not shown) [Example 13, 4-(1H-indazol-5-ylamino)-N-(3-methoxyphenyl)-5,6,7,8-tetrahydro[1]benzothieno[2,3-d]pyrimidine-7-carboxamide]	7 nM
COCCN(C)C(=O)C1CCc2c(sc3ncnc(Nc4ccc5[nH]ncc5c4)c23)C1 (racemic) [Example 130, (RS)-4-(1H-indazol-5-ylamino)-N-(2-methoxyethyl)-N-methyl-5,6,7,8-tetrahydro[1]benzothieno[2,3-d]pyrimidine-7-carboxamide]	9.5 nM
O=C(C1CCc2c(sc3ncnc(Nc4ccc5[nH]ncc5c4)c23)C1)N1CCCC(O)C1 (racemic) [Example 108, (RS)-(3-hydroxypiperidin-1-yl)[4-(1H-indazol-5-ylamino)-5,6,7,8-tetrahydro[1]benzothieno[2,3-d]pyrimidin-7-yl]methanone]	12 nM
CNC(=O)CN1CCN(C(=O)C2CCc3c(sc4ncnc(Nc5ccc6[nH]ncc6c5)c34)C2)CC1 (racemic) [Example 164, (RS)-2-(4-{[4-(1H-indazol-5-ylamino)-5,6,7,8-tetrahydro[1]benzothieno[2,3-d]pyrimidin-7-yl]carbonyl}piperazin-1-yl)-N-methylacetamide]	22.5 nM
CN(Cc1ccncc1)C(=O)C1CCc2c(sc3ncnc(Nc4ccc5[nH]ncc5c4)c23)C1 (stereo not shown) [Example 26, 4-(1H-Indazol-5-ylamino)-N-methyl-N-(pyridin-4-ylmethyl)-5,6,7,8-tetrahydro[1] benzothieno [2,3-d]pyrimidine-7-carboxamide]	3 nM
CCOC(=O)C1CCc2c(sc3ncnc(Nc4cc5cn[nH]c5cc4F)c23)C1 (stereo not shown) [Example 54, Ethyl 4-[(6-fluoro-1H-indazol-5-yl)amino]-5,6,7,8-tetrahydro[1]benzothieno[2,3-d]pyrimidine-7-carboxylate]	19 nM
O=C(NCc1ccsc1)C1CCc2c(sc3ncnc(Nc4ccc5[nH]ncc5c4)c23)C1 (racemic) [Example 151, (RS)-4-(1H-indazol-5-ylamino)-N-(thiophen-3-ylmethyl)-5,6,7,8-tetrahydro[1]benzothieno[2,3-d]pyrimidine-7-carboxamide]	3.2 nM
COc1cc2[nH]ncc2cc1Nc1ncnc2sc3c(c12)CCC(C(=O)N1CC(O)C1)C3 (racemic) [Example 272, (RS)-(3-Hydroxyazetidin-1-yl){4-[(6-methoxy-1H-indazol-5-yl)amino]-5,6,7,8-tetrahydro[1]benzothieno[2,3-d]pyrimidin-7-yl}methanone]	0.6 nM
COCCCN1CCN(C(=O)C2CCc3c(sc4ncnc(Nc5ccc6[nH]ncc6c5)c34)C2)CC1 (racemic) [Example 153, (RS)-[4-(1H-indazol-5-ylamino)-5,6,7,8-tetrahydro[1]benzothieno[2,3-d]pyrimidin-7-yl][4-(3-methoxypropyl)piperazin-1-yl]methanone]	32.5 nM
CC(C)Oc1cc2[nH]ncc2cc1Nc1ncnc2sc3c(c12)CCC(C(=O)N1CCCCC1)C3 (racemic) [Example 213, (RS)-Piperidin-1-yl(4-{[6-(propan-2-yloxy)-1H-indazol-5-yl]amino}-5,6,7,8-tetrahydro[1]benzothieno[2,3-d]pyrimidin-7-yl)methanone]	1.5 nM
O=C(C1CCc2c(sc3ncnc(Nc4ccc5[nH]ncc5c4)c23)C1)N1CCOCC1 (stereo not shown) [Example 47, [4-(1H-Indazol-5-ylamino)-5,6,7,8-tetrahydro[1]benzothieno [2,3-d]pyrimidin-7-yl](morpholin-4-yl)methanone]	11 nM
CCOc1cc2[nH]ncc2cc1Nc1ncnc2sc3c(c12)CCC(C(=O)N1CC2(CCS2(=O)=O)C1)C3 (racemic) [Example 263, (RS)-(1,1-Dioxido-1-thia-6-azaspiro[3.3]hept-6-yl){4-[(6-ethoxy-1H-indazol-5-yl)amino]-5,6,7,8-tetrahydro[1]benzothieno[2,3-d]pyrimidin-7-yl}methanone]	3.3 nM
N#Cc1ccc(NC(=O)C2CCc3c(sc4ncnc(Nc5ccc6[nH]ncc6c5)c34)C2)cc1 (racemic) [Example 77, (RS)—N-(4-Cyanophenyl)-4-(1H-indazol-5-ylamino)-5,6,7,8-tetrahydro[1]benzothieno[2,3-d]pyrimidine-7-carboxamide]	19.7 nM
CN(C)C(=O)C1CCc2c(sc3ncnc(Nc4cc5cn[nH]c5cc4OCCCl)c23)C1 (racemic) [Example 266, (RS)-4-{[6-(2-Chloroethoxy)-1H-indazol-5-yl]amino}-N,N-dimethyl-5,6,7,8-tetrahydro[1]benzothieno[2,3-d]pyrimidine-7-carboxamide]	1.2 nM
CCCN(C)C(=O)C1CCc2c(sc3ncnc(Nc4cc5cn[nH]c5cc4OC)c23)C1 (stereo not shown) [Example 68, 4-[(6-Methoxy-1H-indazol-5-yl)amino]-N-methyl-N-propyl-5,6,7,8-tetrahydro[1]benzothieno[2,3-d]pyrimidine-7-carboxamide]	0.7 nM
CC(C)Oc1cc2[nH]ncc2cc1Nc1ncnc2sc3c(c12)CCC(C(=O)N(C)CC1CC1)C3 (racemic) [Example 220, (RS)—N-(Cyclopropylmethyl)-N-methyl-4-{[6-(propan-2-yloxy)-1H-indazol-5-yl]amino}-5,6,7,8-tetrahydro[1]benzothieno[2,3-d]pyrimidine-7-carboxamide]	0.6 nM
O=C(C1CCc2c(sc3ncnc(Nc4ccc5[nH]ncc5c4)c23)C1)N1CC(O)C1 (racemic) [Example 159, (RS)-(3-hydroxyazetidin-1-yl)[4-(1H-indazol-5-ylamino)-5,6,7,8-tetrahydro[1]benzothieno[2,3-d]pyrimidin-7-yl]methanone]	14.4 nM
CCOc1cc2[nH]ncc2cc1Nc1ncnc2sc3c(c12)CCC(C(=O)N1CC2(COC2)C1)C3 (racemic) [Example 239, (RS)-{4-[(6-Ethoxy-1H-indazol-5-yl)amino]-5,6,7,8-tetrahydro[1]benzothieno[2,3-d]pyrimidin-7-yl}(2-oxa-6-azaspiro[3.3]hept-6-yl)methanone]	0.4 nM
CCN(CCC#N)C(=O)C1CCc2c(sc3ncnc(Nc4ccc5[nH]ncc5c4)c23)C1 (racemic) [Example 190, (RS)-N-(2-cyanoethyl)-N-ethyl-4-(1H-indazol-5-ylamino)-5,6,7,8-tetrahydro[1]benzothieno[2,3-d]pyrimidine-7-carboxamide]	6 nM
